Measured values from patent US20100267796A1, “THERAPEUTIC AGENT FOR IRRITABLE BOWEL SYNDROME” (KYOWA HAKKO KOGYO CO., LTD., priority 2006, published 2010).

Experiments:
[1] = test system: adenosine uptake in HEK293 cells; assay: Adenosine uptake inhibitory activity in HEK293 cells ([3H]adenosine uptake); format: cell-based; details: Homo sapiens, 1 min, [3H]adenosine uptake relative to 100% of control, HEK293 cells
Experimental: A test was conducted according to the method of Leung et al. [Biochemical Pharmacology, Vol. 70, pp. 355-362 (2005)]. HEK293 cells (ATCC, Registration No. CRL-1537) were subcultured in a Dulbecco's modified Eagle's medium (manufactured by Invitrogen Corporation) containing 10% of fatal calf serum in a CO2 incubator using a poly-L-lysine-coated 10-cm dish (manufactured by Asahi Techno Glass Corporation). The cultured cells were seeded in a poly-L-lysine-coated 24-well plate (manufactured by Asahi Techno Glass Corporation) and cultured until the cells become confluent. […] After incubation at room temperature for 15 minutes, 0.2 mL of a Na^+-free buffer containing 100 nmol/L of [^3H] adenosine (manufactured by GE Health Care Bioscience Corporation) and each compound at each of 50 nmol/L and 500 nmol/L was added to each well. After 1 minute, the reaction solution was removed with an aspirator, and the wells were washed twice with 0.5 mL of ice-cooled PBS (phosphate-buffered saline). Then, 0.5 mL of PBS containing 5% Triton X-100 was added to each well, and the cells were scraped with a scraper. The solution in each well was homogenized by passing through a 20 G injection needle ten times and transferred to a scintillation vial containing 4 mL of clear sol (manufactured by Nacalai Tesque Inc.). Further, the wells were washed with 0.5 mL of PBS containing 5% Triton X-100, and the washing solution was added to the same vial. After sufficient agitation, radioactivity was measured using a liquid scintillation counter (Aloka Co., Ltd., LSC-3500). A relative value to 100% of an uptake of a control was indicated by percentage.

[2] = test system: loperamide-induced constipation; assay: Activity on loperamide-induced constipation; format: in vivo, male SD rats; details: doses of 0.01, 0.1 and 1 mg/kg p.o. 1 hour before loperamide 5 mg/kg; rats, n=15; vs. control group
Experimental: The therapeutic effect of the compounds of the present application on constipation was evaluated by the method described below. Compound 1-1 was used as a test compound.
To Compound 1-1, 0.5 w/v % methyl cellulose 400 (MC, manufactured by Wako Pure Chemical Industries, Ltd.) was added, followed by lightly mixing with a mixer (TTM-1, Shibata Scientific Technology Ltd.). Then, the resultant mixture was subjected to ultrasonic treatment (1 minute) with an ultrasonic cleaner (Sine Sonic UA100, Hitachi Kokusai Denki Engineering Co., Ltd.), and suspended by re-mixing with the mixer to prepare a suspension at a concentration of 0.2 mg/mL. […]
A day before the test, the rat tails were numbered for identification and the body weights were measured. […] The collected stools were dried (100° C., 6 hours) with a dryer (SH42, Yamato Scientific Co., Ltd.), and the weight was measured with an electronic balance (AB54, Mettler-Toledo AG). […]
With respect to the fecal amount, a dry weight was used, and an amount of stools for 0 to 8 hours was used as a measurement parameter. The fecal pellets were collected in a tare (aluminum foil) whose weight was previously measured, and the weight was calculated by subtracting the weight of the tare from the weight including the tare weight. […]

C[C@](O)(C(=O)Nc1cccc2c1C(=O)c1sccc1CS2(=O)=O)C(F)(F)F [Compound 1-1]
activity at 0.05 µM ([1]; 50 nmol/L compound, n=2): 68%
activity at 0.5 µM ([1]; 500 nmol/L compound): 29%
fecal amount (dry weight) 0 to 8 hours after the administration of loperamide [2]: significantly inhibits a decrease in fecal amount
